Legend:
[1] = target: T1, C-C chemokine receptor type 2 (Homo sapiens, UniProt P41597); experiment: Binding affinity at human CCR2 receptor
[2] = target: T1, C-C chemokine receptor type 2; experiment: Antagonist activity at CCR2 receptor expressed in THP1 cells assessed as inhibition of MCP-1-induced chemotaxis

T1 sequence (P41597 whole entry): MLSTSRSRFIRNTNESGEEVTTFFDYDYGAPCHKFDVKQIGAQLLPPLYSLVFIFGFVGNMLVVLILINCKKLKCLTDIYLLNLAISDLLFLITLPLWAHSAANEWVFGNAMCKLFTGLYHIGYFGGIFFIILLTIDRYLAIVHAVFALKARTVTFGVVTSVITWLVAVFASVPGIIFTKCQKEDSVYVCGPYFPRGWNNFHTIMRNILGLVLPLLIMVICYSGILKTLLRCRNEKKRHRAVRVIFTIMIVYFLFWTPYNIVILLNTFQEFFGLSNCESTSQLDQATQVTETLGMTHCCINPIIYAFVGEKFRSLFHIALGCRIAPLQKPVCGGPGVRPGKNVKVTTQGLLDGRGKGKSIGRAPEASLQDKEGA

Row | Structure (SMILES) | IC50 [1] | IC50 [2]
1 | O=C(/C=C/c1cc(F)c(F)c(F)c1)N1CCC([C@@H](CO)N2CCC(c3c[nH]c4ccccc34)CC2)CC1 | 2.4 nM | 3.5 nM
2 | CN(C)CC(C1CCN(C(=O)/C=C/c2cc(F)c(F)c(F)c2)CC1)N1CCC(c2c[nH]c3ccccc23)CC1 (configuration not stated) | 4800 nM | 
3 | O=C(/C=C/c1cccc(Br)c1)N1CCC(C(CO)N2CCC(c3c[nH]c4ccccc34)CC2)CC1 (configuration not stated) | 9 nM | 
4 | O=C(/C=C/c1cc(F)c(F)c(F)c1)N1CCC([C@H](CO)N2CCC(c3c[nH]c4ccccc34)CC2)CC1 | 10 nM | 
5 | COC(=O)c1ccc2[nH]cc(C3CCN(C(CO)C4CCN(C(=O)/C=C/c5cc(F)c(F)c(F)c5)CC4)CC3)c2c1 (configuration not stated) | 20 nM | 
6 | COC(=O)c1ccc2[nH]cc(C3CCN(C(CO)C4CCN(C(=O)Nc5ccc(Cl)c(Cl)c5)CC4)CC3)c2c1 (configuration not stated) | 50 nM | 
7 | O=C(O)c1ccc2[nH]cc(C3CCN(C(CO)C4CCN(C(=O)Nc5ccc(Cl)c(Cl)c5)CC4)CC3)c2c1 (configuration not stated) | 10 nM | 

Now those with a lower IC50 [1], led by results:

Row | IC50 [1] | IC50 [2] | Structure (SMILES)
8 | 2 nM |  | CC(=O)Nc1ccc2[nH]cc(C3CCN(C(CO)C4CCN(C(=O)/C=C/c5cc(F)c(F)c(F)c5)CC4)CC3)c2c1 (configuration not stated)
9 | 2 nM |  | O=C(/C=C/c1ccc(F)c(Br)c1)N1CCC(C(CO)N2CCC(c3c[nH]c4ccccc34)CC2)CC1 (configuration not stated)
10 | 1 nM |  | Nc1ccc2[nH]cc(C3CCN(C(CO)C4CCN(C(=O)/C=C/c5cc(F)c(F)c(F)c5)CC4)CC3)c2c1 (configuration not stated)
11 | 1 nM |  | O=C(/C=C/c1cc(F)c(F)c(F)c1)N1CCC(C(CO)N2CCC(c3c[nH]c4ccc(O)cc34)CC2)CC1 (configuration not stated)
